Tests used:
Dnmt3a^−/− HSCs = test: Serial colony replating; assay type: cell-based, mouse; conditions: compared to vehicle
Protocol: (§1) (A) Heatmap representing gene expression analysis of HSPCs isolated from Dnmt3a^WT or Dnmt3a^KO or Dnmt3a^KO; Alpk1^KO mice treated with either H2O or ADP-heptose for 90 minutes in vitro as determined by RNA-sequencing from three independent replicates (1.5 fold; P<0.05). (B) Gene Set Enrichment Analysis (GSEA) of Dnmt3a^KO cells treated with ADP-heptose versus H2O. […] NES, normalized enrichment score. Absolute enrichment score (ES) and corresponding P value are shown for each pathway. (D) Enrichment of transcription factors was determined with the ENCODE and CHIP Enrichment Analysis (ChEA) libraries using genes that are overexpressed in ADP-heptose-stimulated Dnmt3a^WT versus H2O-stimulated Dnmt3a^WT (left panel) or ADP-heptose-stimulated Dnmt3a^KO versus H2O-stimulated Dnmt3a^KO HSPCs (right panel). (E) Representative flow cytometric profile of EdU+HSCs after ADP-heptose or H2O treatment. […] In each plating, colonies were scored at day 14. […] (L) Colony forming potential of Dnmt3a^WT or Dnmt3a^KO HSPCs was evaluated upon treatment with either vehicle, ADP-heptose, or ADP-heptose and UBE2N inhibitor. (M) CD34+ MDS BM and normal CD34+ BM cells treated with vehicle, ADP-heptose, or ADP-heptose and UBE2N inhibitor were evaluated for colony formation in methylcellulose. […]

[1] = test system: Dnmt3a; Alpk1 deficient HSCs; test: Serial colony replating; assay type: cell-based, mouse
Protocol: as §1

WT HSCs = test: ADP-heptose treatment of low-dose irradiated chimeric mice: donor HSC number and engraftment; assay type: in vivo, mouse; conditions: ADP-heptose 0.5 mg/kg for 2 weeks
Source text: To model pre-leukemic clonal hematopoiesis, chimeric mice were generated as aas follows. Briefly, mixture of 1×10^6 whole bone marrow cells (WBM) were obtained from Poly (I:C) treated wild-type (Dnmt3a^+/+; MxCre^+, called Dnmt3a^WT) or mutant mice (Dnmt3a^f/f; MxCre^+, called Dnmt3a^KO) or double mutant mice (Dnmt3a^f/f; MxCre^+; Alpk1^KO, called Dnmt3a^KO; Alpk1^KO) (CD45.2^+), and transplanted into low-dose (2.5 Gy) irradiated recipient mice (CD45.1^+; 6-10 weeks of age). 8 weeks post-transplant, chimeric mice were treated with either water (H2O) or DSS (2.5%) for 1 week, and allowed to recover for 1 more week on water after which flow cytometry was performed on BM. In separate experiment, chimeric mice were pre-treated with broad spectrum antibiotics (ABX) for 4 weeks, and then subjected to DSS for 1 week after which flow cytometry performed on BM. In a separate set of experiment, chimeric mice were treated with either H2O or ADP-heptose (0.5 mg/kg) for 2 weeks, and flow cytometry performed after 2 more weeks on BM. In all the experiments, secondary transplantation was performed by purifying donor HSCs (CD45.2^+Lin^−Sca-1^+c-Kit^+Flk2^−CD150^+CD48^−) and transplanting 100 HSCs with 200,000 helper WBM cells (CD45.1+) into lethally irradiated (8 Gy) recipient mice (CD45.1^+), and donor chimerism in PB examined by flow cytometry.

TIFA-TdT THP1 cells = test: TIFAsome formation assay; assay type: cell-based, human
Protocol: THP1-TIFA-tdTomato cells (1*10^6) were stimulated with various human plasma samples (100 μl) for 30 mins in a 37° C. water bath in final volume of 200 μl. Cells were harvested, washed with PBS+2% FBS+2 mM EDTA (MACS buffer) and fixed with 4% Paraformaldehyde (PFA, Cat no. 15710, Electron Microscopy Sciences). After fixation, cells were washed again and then resuspended in 50 μl MACS buffer. Cells were then analyzed for TIFAsome formation on an Amnis Imagestream Mk II Imaging Flow Cytometer ISX-100 (Luminex) according to the manufacturer's instructions. Downstream analysis was performed in IDEAS analysis software (Amnis). TIFAsome positive cells were identified by gating on Mean Pixel Intensity and Max Pixel Intensity for bright puncta analysis using the IDEAS Image Data Exploration and Analysis Software. A standard curve was prepared by calculating % TIFAsome positive cells using samples which were stimulated with serial increasing doses of ADP-heptose covering the concentration range of 10 to 100,000 ng/ml. […]
THP1-TIFA-tdTomato-GFP cells were suspended at 1×10^6 cells/mL and treated with either human plasma samples (50 μl) in final volume of 200 μl for 30 minutes, or the inhibitor for 1 hour to allow for entry into the cell and then stimulated with ADP-heptose for 30 minutes. […] Images were acquired using a Nikon Ni-E Upright widefield fluorescent scope and analyzed using Nikon Elements.

SMILES: Nc1ncnc2c1ncn2[C@@H]1O[C@H](COP(=O)(O)OP(=O)(O)O[C@@H]2O[C@H]([C@H](O)CO)[C@@H](O)[C@H](O)[C@@H]2O)[C@@H](O)[C@H]1O [ADP-heptose, ADP-D-glycero-β-D-manno-heptose]
- serial colony formation (Dnmt3a^−/− HSCs): significantly increased serial colony formation
- colony replating response to ADP-heptose [1]: did not respond
- WT HSCs numbers and engraftment in recipient mice (WT HSCs): did not affect
- TIFAsome formation (discrete puncta in the cytoplasm) (TIFA-TdT THP1 cells): rapidly induce TIFAsome formation
